Results as given in patent publication US9714240B2 (PharmAkea, Inc., priority 2013, dated 2017).

The compounds below were run against T1, human autotaxin (Homo sapiens, UniProt Q13822) (assay: Human Autotaxin Assay (choline release from LPC)). Conditions: ATX in concentrated conditioned media from Hep3B cells, substrate LPC 14:0 100 uM, absorbance at 555 nm.
T1 construct: Conditioned media is collected from confluent Hep3B cells and concentrated 20-fold; endogenous in cells; host or cells: Hep3B human hepatocellular carcinoma cells (concentrated conditioned medium)
Format: biochemical
Procedure: ATX activity is assayed in concentrated conditioned media from Hep3B human hepatocellular carcinoma cells by measuring the amount of choline released from the substrate, lysophosphatidylcholine (LPC) as it is cleaved to LPA. Conditioned media is collected from confluent Hep3B cells and concentrated 20-fold using Centriprep-30 filter devices (Millipore). To assay for autotaxin inhibition, 10-20 μL of the concentrated conditioned media is incubated with 2.5 μL of a test compound in DMSO and 72.5-82.5 μL lyso-PLD buffer (100 mM Tris pH 9, 500 mM NaCl, 5 mM MgCl2, 5 mM CaCl2, 0.05% Triton X-100 in the presence or absence of 0.2% fatty-acid-free human serum albumin) for 15 min at 37° C. After the 15 min incubation, 5 ul of 2 mM LPC (14:0; Avanti Polar Lipids Cat#855575C) diluted in lyso-PLD buffer is added for a final concentration of 100 uM and the incubation continues for 1.5-3 hours at 37° C. 100 μl of a color mix containing 4.5 mM 4-aminoantipyrine, 2.7 mM N-ethyl-N-(2-hydroxy-3-sulfopropyl)-m-toluidine, 21 units/ml horseradish peroxidase and 3 units/ml choline oxidase in 50 mM Tris, pH 8, 4.5 mM MgCl2 is added and the incubation continued for 15 minutes at room temperature before reading the absorbance at 555 nm.

Question: With `N#C/C(=C\c1cn(Cc2ccc(F)cc2)c2cc(C(F)(F)F)ccc12)c1ccc(C(=O)O)cc1` [Compound 1-9, 4-[(Z)-1-cyano-2-[1-[(4-fluorophenyl)methyl]-6-(trifluoromethyl)indol-3-yl]vinyl]benzoic Acid] as the compound, how does the IC50 read?
Answer: 500 to 10000 nM

Question: For `COc1ccc2c(/C=C(\C#N)c3ccc(C(=O)O)cc3)cn(Cc3ccc(OC)nc3)c2c1` [Compound 1-29, 4-[(Z)-1-cyano-2-[6-methoxy-1-[(6-methoxy-3-pyridyl)methyl]indol-3-yl]vinyl]benzoic Acid], which IC50 is on record?
Answer: ≤ 500 nM

Question: With `N#C/C(=C\c1cn(Cc2ccc(C(F)(F)F)cc2)c2cc(Cl)ccc12)c1ccc(C(=O)O)cc1` [Compound 1-21, 4-[(Z)-2-[6-chloro-1-[[4-(trifluoromethyl)phenyl]methyl]indol-3-yl]-1-cyano-vinyl]benzoic Acid] as the compound, how does the IC50 read?
Answer: 500 to 10000 nM

Question: Which IC50 does the source give for `N#C/C(=C\c1cn(Cc2ccc(F)cc2)c2cc(F)cc(F)c12)c1ccc(C(=O)O)cc1` [Compound 1-11, 4-[(Z)-1-cyano-2-[4,6-difluoro-1-[(4-fluorophenyl)methyl]indol-3-yl]vinyl]benzoic Acid] here?
Answer: ≤ 500 nM

Question: For `N#C/C(=C\c1cn(Cc2ccc(F)cc2)c2ccccc12)c1ccc(C(=O)O)cc1` [Compound 1-1, 4-[(Z)-1-cyano-2-[1-[(4-fluorophenyl)methyl]indol-3-yl]vinyl]benzoic Acid], which IC50 is on record?
Answer: 500 to 10000 nM

Question: With `N#C/C(=C\c1cn(Cc2ccc(OC(F)(F)F)cc2)c2cc(Cl)ccc12)c1ccc(C(=O)O)cc1` [Compound 1-45, (Z)-4-(2-(6-chloro-1-(4-(trifluoromethoxy)benzyl)-1H-indol-3-yl)-1-cyanovinyl)benzoic Acid] as the compound, how does the IC50 read?
Answer: 500 to 10000 nM

Question: With `N#C/C(=C\c1cn(Cc2ccc(F)cc2)c2c(Cl)cccc12)c1ccc(C(=O)O)cc1` [Compound 1-5, 4-[(Z)-2-[7-chloro-1-[(4-fluorophenyl)methyl]indol-3-yl]-1-cyano-vinyl]benzoic Acid] as the compound, how does the IC50 read?
Answer: 500 to 10000 nM

Question: `CCCc1noc(Cn2cc(/C=C(\C#N)c3ccc(C(=O)O)cc3)c3ccc(Cl)cc32)n1` [Compound 1-18, 4-[(Z)-2-[6-chloro-1-[(3-propyl-1,2,4-oxadiazol-5-yl)methyl]indol-3-yl]-1-cyano-vinyl]benzoic Acid] was tested. Which IC50 did it give?
Answer: 500 to 10000 nM

Question: For `N#C/C(=C\c1cn(Cc2ccccc2)c2cc(Cl)ccc12)c1ccc(C(=O)O)cc1` [Compound 1-13, 4-[(Z)-2-(1-benzyl-6-chloro-indol-3-yl)-1-cyano-vinyl]benzoic Acid], which IC50 is on record?
Answer: 500 to 10000 nM

Question: `CS(=O)(=O)c1ccc2c(/C=C(\C#N)c3ccc(C(=O)O)cc3)cn(Cc3ccc(F)cc3)c2c1` [Compound 1-67, (Z)-4-(1-cyano-2-(1-(4-fluorobenzyl)-6-(methylsulfonyl)-1H-indol-3-yl)vinyl)benzoic Acid] was tested. Which IC50 did it give?
Answer: 500 to 10000 nM

Question: For `N#C/C(=C\c1cn(Cc2ccc(F)cc2)c2cccc(Cl)c12)c1ccc(C(=O)O)cc1` [Compound 1-2, 4-[(Z)-1-cyano-2-[4-chloro-1-[(4-fluorophenyl)methyl]indol-3-yl]vinyl]benzoic Acid], which IC50 is on record?
Answer: 500 to 10000 nM

Question: Which IC50 does the source give for `N#C/C(=C\c1cn(Cc2ccc(F)cc2)c2cc(Cl)ccc12)c1ccc(C(=O)O)cc1` [Compound 1-4, (Z)-4-(2-(6-chloro-1-(4-fluorobenzyl)-1H-indol-3-yl)-1-cyanovinyl)benzoic Acid] here?
Answer: ≤ 500 nM

Question: How did the IC50 turn out when `Cn1cc(Cn2cc(/C=C(\C#N)c3ccc(C(=O)O)cc3)c3ccc(Cl)cc32)cn1` [Compound 1-25, 4-[(Z)-2-[6-chloro-1-[(1-methylpyrazol-4-yl)methyl]indol-3-yl]-1-cyano-vinyl]benzoic Acid] was run?
Answer: 500 to 10000 nM

Question: With `N#C/C(=C\c1cn(Cc2ccc(OCC(F)(F)F)nc2)c2cc(Cl)ccc12)c1ccc(C(=O)O)cc1` [Compound 1-48, (Z)-4-(2-(6-chloro-1-((6-(2,2,2-trifluoroethoxy)pyridin-3-yl)methyl)-1H-indol-3-yl)-1-cyanovinyl)benzoic Acid] as the compound, how does the IC50 read?
Answer: > 10000 nM

Question: For `N#C/C(=C\c1cn(Cc2ccc(F)cc2)c2cc(Br)ccc12)c1ccc(C(=O)O)cc1` [Compound 1-8, 4-[(Z)-2-[6-bromo-1-[(4-fluorophenyl)methyl]indol-3-yl]-1-cyano-vinyl]benzoic Acid], which IC50 is on record?
Answer: 500 to 10000 nM

Question: For `COc1ccc(Cn2cc(/C=C(\C#N)c3ccc(C(=O)O)cc3)c3ccc(Cl)c(F)c32)cn1` [Compound 1-50], which IC50 is on record?
Answer: ≤ 500 nM

Question: How did the IC50 turn out when `N#C/C(=C\c1cn(CCCc2ccccc2)c2cc(Cl)ccc12)c1ccc(C(=O)O)cc1` [Compound 1-24, 4-[(Z)-2-[6-chloro-1-(3-phenylpropyl)indol-3-yl]-1-cyano-vinyl]benzoic Acid] was run?
Answer: 500 to 10000 nM

Question: How did the IC50 turn out when `CCCn1cc(-n2cc(/C=C(\C#N)c3ccc(C(=O)O)cc3)c3ccc(Cl)cc32)cn1` [Compound 1-12, 4-[(Z)-2-[6-chloro-1-(1-propylpyrazol-4-yl)indol-3-yl]-1-cyano-vinyl]benzoic Acid] was run?
Answer: > 10000 nM

Question: With `N#C/C(=C\c1cn(Cc2cnc(C(F)(F)F)s2)c2cc(Cl)ccc12)c1ccc(C(=O)O)cc1` [Compound 1-15, 4-[(Z)-2-[6-chloro-1-[[2-(trifluoromethyl)thiazol-5-yl]methyl]indol-3-yl]-1-cyano-vinyl]benzoic Acid] as the compound, how does the IC50 read?
Answer: ≤ 500 nM

Question: `COc1ccc(Cn2cc(/C=C(\C#N)c3ccc(C(=O)O)cc3)c3ccc(Cl)cc32)cn1` [Compound 1-26, 4-[(Z)-2-[6-chloro-1-[(6-methoxy-3-pyridyl)methyl]indol-3-yl]-1-cyano-vinyl]benzoic Acid] was tested. Which IC50 did it give?
Answer: ≤ 500 nM

Question: For `N#C/C(=C\c1cn(Cc2ccc(OC(F)F)cc2F)c2cc(Cl)ccc12)c1ccc(C(=O)O)cc1` [Compound 1-47, (Z)-4-(2-(6-chloro-1-(4-(difluoromethoxy)-2-fluorobenzyl)-1H-indol-3-yl)-1-cyanovinyl)benzoic Acid], which IC50 is on record?
Answer: 500 to 10000 nM

Question: How did the IC50 turn out when `N#C/C(=C\c1cn(Cc2cnc(C(F)(F)F)s2)c2c(F)c(Cl)ccc12)c1ccc(C(=O)O)cc1` [Compound 1-52] was run?
Answer: ≤ 500 nM

Question: For `COc1ccc(Cn2cc(/C=C(\C#N)c3ccc(C(=O)O)cc3)c3ccc(OC(F)(F)F)cc32)cn1` [Compound 1-76], which IC50 is on record?
Answer: ≤ 500 nM

Question: With `N#C/C(=C\c1cn(Cc2cc(C(F)(F)F)cc(C(F)(F)F)c2)c2cc(Cl)ccc12)c1ccc(C(=O)O)cc1` [Compound 1-20, 4-[(Z)-2-[1-[[3,5-bis(trifluoromethyl)phenyl]methyl]-6-chloro-indol-3-yl]-1-cyano-vinyl]benzoic Acid] as the compound, how does the IC50 read?
Answer: > 10000 nM

Question: For `N#C/C(=C\c1cn(Cc2ccncc2)c2cc(Cl)ccc12)c1ccc(C(=O)O)cc1` [Compound 1-14, 4-[(Z)-2-[6-chloro-1-(4-pyridylmethyl)indol-3-yl]-1-cyano-vinyl]benzoic Acid], which IC50 is on record?
Answer: 500 to 10000 nM

Question: For `COc1ccc2c(/C=C(\C#N)c3ccc(C(=O)O)cc3)cn(Cc3ccc(F)cc3)c2c1` [Compound 1-10, 4-[(Z)-1-cyano-2-[1-[(4-fluorophenyl)methyl]-6-methoxy-indol-3-yl]vinyl]benzoic Acid], which IC50 is on record?
Answer: ≤ 500 nM

Question: For `N#C/C(=C\c1cn(CCc2ccc(F)cc2)c2cc(Cl)ccc12)c1ccc(C(=O)O)cc1` [Compound 1-22, 4-[(Z)-2-[6-chloro-1-[2-(4-fluorophenyl)ethyl]indol-3-yl]-1-cyano-vinyl]benzoic Acid], which IC50 is on record?
Answer: > 10000 nM

Question: For `COc1ccc(Cn2cc(/C=C(\C#N)c3ccc(C(=O)O)nc3)c3ccc(Cl)cc32)cn1` [Compound 2-3, 5-[(Z)-2-[6-chloro-1-[(6-methoxy-3-pyridyl)methyl]indol-3-yl]-1-cyano-vinyl]pyridine-2-carboxylic Acid], which IC50 is on record?
Answer: ≤ 500 nM

Question: For `N#C/C(=C\c1cn(Cc2cnc(C(F)(F)F)s2)c2cc(OC(F)(F)F)ccc12)c1ccc(C(=O)O)cc1` [Compound 1-77, (Z)-4-(1-cyano-2-(6-(trifluoromethoxy)-1-((2-(trifluoromethyl)thiazol-5-yl)methyl)-1H-indol-3-yl)vinyl)benzoic Acid], which IC50 is on record?
Answer: ≤ 500 nM

Question: For `CCOc1ccc2c(/C=C(\C#N)c3ccc(C(=O)O)cc3)cn(Cc3ccc(F)cc3)c2c1` [Compound 1-65, (Z)-4-(1-cyano-2-(6-ethoxy-1-(4-fluorobenzyl)-1H-indol-3-yl)vinyl)benzoic Acid], which IC50 is on record?
Answer: ≤ 500 nM

Question: For `N#C/C(=C\c1cn(Cc2ccc(F)cc2)c2cc(Cl)ccc12)c1ccc(CC(=O)O)cc1` [Compound 2-25, (Z)-2-(4-(2-(6-chloro-1-(4-fluorobenzyl)-1H-indol-3-yl)-1-cyanovinyl)phenyl)acetic Acid], which IC50 is on record?
Answer: ≤ 500 nM

Question: How did the IC50 turn out when `N#C/C(=C\c1cn(Cc2ccc(F)cc2)c2cc(Cl)ccc12)c1cccc(C(=O)O)c1` [Compound 2-26] was run?
Answer: 500 to 10000 nM

Question: With `N#C/C(=C\c1cn(Cc2ccc(Cl)nc2)c2cc(Cl)ccc12)c1ccc(C(=O)O)cc1` [Compound 1-16, 4-[(Z)-2-[6-chloro-1-[(6-chloro-3-pyridyl)methyl]indol-3-yl]-1-cyano-vinyl]benzoic Acid] as the compound, how does the IC50 read?
Answer: ≤ 500 nM

Question: For `N#C/C(=C\c1cn(Cc2ccc(F)cc2)c2cc([N+](=O)[O-])ccc12)c1ccc(C(=O)O)cc1` [Compound 1-66, (Z)-4-(1-cyano-2-(1-(4-fluorobenzyl)-6-nitro-1H-indol-3-yl)vinyl)benzoic Acid], which IC50 is on record?
Answer: ≤ 500 nM

Question: Which IC50 does the source give for `CCOc1ncc(Cn2cc(/C=C(\C#N)c3ccc(C(=O)O)cc3)c3ccc(Cl)cc32)s1` [Compound 1-17, 4-[(Z)-2-[6-chloro-1-[(2-ethoxythiazol-5-yl)methyl]indol-3-yl]-1-cyano-vinyl]benzoic Acid] here?
Answer: 500 to 10000 nM
